Test system: 171881-019-R-J1-PDC multicell spheroid viability
Assay: Anticancer human tumor 171881-019-R-J1-PDC patient-derived invasive breast carcinoma cell line growth inhibition [IpAb]
Settings: for IC50: curve of first compound; for viability, T/C: stronger effect = lower value
How it was run: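 Spheroids of 60% malignant cells, 25% HUVEC and 15% MSC were exposed to targeted agents combined with ipatasertib or abemaciclib. Doses started at or near clinical Cmax (10 microM when unknown) and fell in half-log steps.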

[1] = second compound 0.01 µM, first compound 0.0316 µM
[2] = second compound 0.01 µM, first compound 0.1 µM
[3] = second compound 0.01 µM, first compound 0.316 µM
[4] = second compound 0.01 µM, first compound 1 µM
[5] = second compound 0.01 µM, first compound 3.16 µM
[6] = second compound 0.01 µM, first compound 10 µM
[7] = second compound 0.0316 µM, first compound 0.0316 µM
[8] = second compound 0.0316 µM, first compound 0.1 µM
[9] = second compound 0.0316 µM, first compound 0.316 µM
[10] = second compound 0.0316 µM, first compound 1 µM
[11] = second compound 0.0316 µM, first compound 3.16 µM
[12] = second compound 0.0316 µM, first compound 10 µM
[13] = second compound 0.1 µM, first compound 0.0316 µM
[14] = second compound 0.1 µM, first compound 0.1 µM
[15] = second compound 0.1 µM, first compound 0.316 µM
[16] = second compound 0.1 µM, first compound 1 µM
[17] = second compound 0.1 µM, first compound 3.16 µM
[18] = second compound 0.1 µM, first compound 10 µM
[19] = second compound 0.316 µM, first compound 0.0316 µM
[20] = second compound 0.316 µM, first compound 0.1 µM
[21] = second compound 0.316 µM, first compound 0.316 µM
[22] = second compound 0.316 µM, first compound 1 µM
[23] = second compound 0.316 µM, first compound 3.16 µM
[24] = second compound 0.316 µM, first compound 10 µM
[25] = second compound 1 µM, first compound 0.0316 µM
[26] = second compound 1 µM, first compound 0.1 µM
[27] = second compound 1 µM, first compound 0.316 µM
[28] = second compound 1 µM, first compound 1 µM
[29] = second compound 1 µM, first compound 3.16 µM
[30] = second compound 1 µM, first compound 10 µM
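Also: spheroids exposed to the agents for seven days before readout.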

Compound	IC50 (second compound 0.01 µM)	IC50 (second compound 0.0316 µM)	IC50 (second compound 0.1 µM)	IC50 (second compound 0.316 µM)	IC50 (second compound 1 µM)	viability, T/C [1]	viability, T/C [2]	viability, T/C [3]	viability, T/C [4]	viability, T/C [5]	viability, T/C [6]	viability, T/C [7]	viability, T/C [8]	viability, T/C [9]	viability, T/C [13]	viability, T/C [14]	viability, T/C [19]	viability, T/C [20]	viability, T/C [25]	viability, T/C [26]	further results
C=CC(=O)N1CCN(c2nc(=O)n(-c3c(C)ccnc3C(C)C)c3nc(-c4c(O)cccc4F)c(F)cc23)C(C)C1 (stereo not given) + CCN1CCN(Cc2ccc(Nc3ncc(F)c(-c4cc(F)c5nc(C)n(C(C)C)c5c4)n3)nc2)CC1	8350 nM	9500 nM	> 10000 nM	> 10000 nM	> 10000 nM	103%	90.1%	89.5%	94.8%	97.5%	41.6%	99.1%	94.1%	104%	117%	128%	136%	132%	148%	148%	viability, T/C [10]: 90.6%; viability, T/C [11]: 91.5%; viability, T/C [12]: 47.7%; viability, T/C [15]: 114%; viability, T/C [16]: 108%; viability, T/C [17]: 105%; viability, T/C [18]: 49.7%; viability, T/C [21]: 132%; viability, T/C [22]: 131%; viability, T/C [23]: 114%; viability, T/C [24]: 59.7%; viability, T/C [27]: 149%; viability, T/C [28]: 143%; viability, T/C [29]: 127%; viability, T/C [30]: 76.6%
Cn1ncc(Cl)c1-c1cc(C(=O)NC(CN)Cc2cccc(F)c2)sc1Cl (stereo not given) + CCN1CCN(Cc2ccc(Nc3ncc(F)c(-c4cc(F)c5nc(C)n(C(C)C)c5c4)n3)nc2)CC1	183 nM	176 nM	167 nM	207 nM	345 nM	116%	69.1%	31.4%	16.8%	3.11%	0.48%	116%	67.4%	31.1%	103%	66.2%	107%	73.2%	122%	87.9%	viability, T/C [10]: 15.9%; viability, T/C [11]: 4.15%; viability, T/C [12]: 0.13%; viability, T/C [15]: 28%; viability, T/C [16]: 17.3%; viability, T/C [17]: 3.84%; viability, T/C [18]: 0.58%; viability, T/C [21]: 34%; viability, T/C [22]: 19.4%; viability, T/C [23]: 4.04%; viability, T/C [24]: 0.34%; viability, T/C [27]: 50.1%; viability, T/C [28]: 27.3%; viability, T/C [29]: 8.61%; viability, T/C [30]: 0.61%
Cn1ncnc1[C@H]1c2n[nH]c(=O)c3cc(F)cc(c23)N[C@@H]1c1ccc(F)cc1 + CCN1CCN(Cc2ccc(Nc3ncc(F)c(-c4cc(F)c5nc(C)n(C(C)C)c5c4)n3)nc2)CC1	> 100 nM	> 100 nM	> 100 nM	> 100 nM	> 100 nM	95.5%	109%	–	–	–	–	104%	113%	–	116%	113%	130%	126%	137%	138%	viability, T/C (second compound 0.01 µM, first compound 0.000316 µM): 88.2%; viability, T/C (second compound 0.01 µM, first compound 0.001 µM): 99.7%; viability, T/C (second compound 0.01 µM, first compound 0.00316 µM): 86.9%; viability, T/C (second compound 0.01 µM, first compound 0.01 µM): 102%; viability, T/C (second compound 0.0316 µM, first compound 0.000316 µM): 109%; viability, T/C (second compound 0.0316 µM, first compound 0.001 µM): 96.2%; viability, T/C (second compound 0.0316 µM, first compound 0.00316 µM): 113%; viability, T/C (second compound 0.0316 µM, first compound 0.01 µM): 114%; viability, T/C (second compound 0.1 µM, first compound 0.000316 µM): 118%; viability, T/C (second compound 0.1 µM, first compound 0.001 µM): 118%; viability, T/C (second compound 0.1 µM, first compound 0.00316 µM): 115%; viability, T/C (second compound 0.1 µM, first compound 0.01 µM): 114%; viability, T/C (second compound 0.316 µM, first compound 0.000316 µM): 126%; viability, T/C (second compound 0.316 µM, first compound 0.001 µM): 132%; viability, T/C (second compound 0.316 µM, first compound 0.00316 µM): 124%; viability, T/C (second compound 0.316 µM, first compound 0.01 µM): 127%; viability, T/C (second compound 1 µM, first compound 0.000316 µM): 143%; viability, T/C (second compound 1 µM, first compound 0.001 µM): 141%; viability, T/C (second compound 1 µM, first compound 0.00316 µM): 140%; viability, T/C (second compound 1 µM, first compound 0.01 µM): 135%

Reference: PubChem BioAssay AID2060342 (Molecular Pharmacology Branch, DTP, NCI, 2025)
